Experiment [1] deals with JIMT1 cells (trastuzumb-resistant human breast cancer). As to the kind of experiment: Cell viability of JIMT1 cells after transfection (Celltiter Glo, ATP). It is filed as cell-based. To be noted: three doses, 24, 48, 72 hours, RNAiMax lipofectamine carrier (doxorubicin alone without lipofectamine). The method, then:
(§1) To measure the effect of the complexes on cell viability, the formed complexes were transfected into JIMT1 cells (trastuzumb-resistant human breast cancer). Approximately 10,000 cells per well were plated in 96-well plates, maintained in RPMI 1640 medium with 100% fetal bovine serum, 100 U/mL penicillin, 100 μg/mL streptomycin at 37° C. under 5% CO2. After 24 hours, the culture media was replaced with Opti-MEM I reduced serum medium (Invitrogen Life Technologies). RNAiMax lipofectamine (Invitrogen Life Technologies) was used as a carrier for siRNA, Dox:siRNA complexes, and the Dox:DNA oligo complex delivery. Doxorubicin was administered to the control sample without the lipofectamine. Three hours following transfection, the medium in each sample was replaced with complete culture media. After 24, 48, or 72 hours, relative cell viability was determined by quantifying ATP using Celltiter Glo Luminescent Cell Viability Kit (Promega), according to the manufacturer's instructions. Experiments were conducted in triplicate. Results are shown in FIG. 5A (24 hours), 5B (48 hours), and SC (72 hours).
Background: ATP-based viability assays read luminescence as a measure of living cells.

Experiment [2] concerns 4T1-Fluc-Neo/eGFP-Puro cells (mouse mammary carcinoma cells). Put plainly: Cell viability of 4T1-Fluc-Neo/eGFP-Puro cells after transfection (Celltiter Glo, ATP). The experiment is classed as cell-based. To be noted: three doses, 24 hours, RNAiMax lipofectamine carrier (doxorubicin alone without lipofectamine). On the procedure:
as §1, with “4T1-Fluc-Neo/eGFP-Puro” for “JIMT1”, “(mouse mammary carcinoma cells stably expressing FLuc and eGFP).” for “(trastuzumb-resistant human breast cancer).”, “[…],” for “100%”, “siScrm2, dox:siScrm2, siRNA3, or dox:siRNA3” for “siRNA, Dox:siRNA complexes, and the Dox:DNA oligo complex”, “24” for “24, 48, or 72”, “triplicate.” for “triplicate. Results are shown in FIG. 5A (24 hours), 5B (48 hours), and SC (72 hours).”

Take `COc1cccc2c1C(=O)c1c(O)c3c(c(O)c1C2=O)C[C@@](O)(C(=O)CO)C[C@@H]3O[C@H]1C[C@H](N)[C@H](O)[C@H](C)O1` [doxorubicin]: the relative cell viability result in experiment [1] and in experiment [2] was “dose-dependent decrease in cell viability” each time.

These data come from patent publication US20190240344A1, “FUNCTIONAL RNA AND SMALL-MOLECULE DRUG THERAPEUTIC COMPLEXES AND NANOPARTICLE DELIVERY VEHICLES” (EOS BIOSCIENCES, INC., priority 2016, published 2019).
